{"source": "patent US7875282B2", "about": "(Cordis Corporation, priority 2004, dated 2011)", "key": {"[1]": {"tested_on": "human coronary artery smooth muscle cells", "test": "Anti-proliferative activity in synchronized cultured cells stimulated with two percent fetal bovine serum", "assay_type": "cell-based", "settings": "for effect of addition on the anti-proliferative activity of rapamycin: added to rapamycin", "text": "The multiple curves represent various concentrations of topotecan ranging from zero to three hundred nanomolar concentrations.\nThe multiple curves represent various concentrations of etoposide ranging from zero to eight hundred nanomolar concentrations.\nThe multiple curves represent various concentrations of Panzem® ranging from zero to 100 micromolar concentrations."}, "[2]": {"tested_on": "human smooth muscle cells", "test": "PDGF-stimulated proliferation of human smooth muscle cells, cell count", "assay_type": "cell-based", "settings": "from IC50 values", "experimental": "To assess the ability of cladribine to prevent cell proliferation, human smooth muscle or endothelial cells (Clonetics, Walkersville, Md.) were seeded at a density of 2000 cells/cm^2 (approximately 3600 cells/well) into each well of 12-well plates and cultured with 1.5 ml of growth medium containing five percent fetal calf serum (FCS). After twenty-four hours, the growth medium was changed and fresh medium containing 10 ng/ml platelet-derived growth factor AB (PDGF AB; LIFE Technologies), as well as various concentrations of cladribine (0.001-10,000 nM) were added with triplicate wells. Medium was replaced with fresh cladribine-containing medium after three days. On day six, cells were detached by trypsinization to yield a cell suspension, lightly centrifuged to pellet and then counted manually using a Neubauer hemocytometer system. Cell viability was assessed by trypan blue exclusion."}, "[3]": {"tested_on": "human coronary artery smooth muscle cells", "test": "Anti-proliferative activity in non-synchronized cultured cells stimulated with two percent fetal bovine serum", "assay_type": "cell-based", "settings": "for effect of addition on the anti-proliferative activity of rapamycin: non-synchronized cells, added to rapamycin", "text": "The multiple curves represent various concentrations of mycophenolic acid ranging from zero to one thousand nanomolar concentrations.\nFIG. 58 illustrates, in graphical format, the anti-proliferative activity of cladribine in non-synchronized cultured human coronary artery smooth muscle cells stimulated with two percent fetal bovine serum.\nThe multiple curves represent various concentrations of cladribine ranging from zero to nine hundred nanomolar concentrations."}, "[4]": {"test": "In vivo release kinetics from rapamycin, cladribine and polymer coating, porcine pharmacokinetics studies", "set-up": "species or system Yorkshire pigs", "settings": "Bx Velocity stents, BMA topcoat", "text": "(§1) The basecoat is applied to Bx Velocity® stents and implanted into Yorkshire pigs.\nas §1"}, "[5]": {"test": "In vivo release kinetics from rapamycin, mycophenolic acid and polymer coating, porcine pharmacokinetics studies", "settings": "one hundred eighty micro grams each drug"}, "[6]": {"tested_on": "human coronary artery smooth muscle cell", "test": "In vitro cell culture study of coronary artery smooth muscle cell proliferation", "assay_type": "cell-based", "text": "FIG. 51 is a graph of the inhibition of coronary artery smooth muscle cells by trichostatin A in a cell culture study."}, "[7]": {"tested_on": "tumor cell lines", "settings": "Woo et al., J. Med Chem 2002; cited from earlier work"}}, "data": [{"smiles": "COc1cc2c(cc1O)CC[C@@H]1[C@@H]2CC[C@]2(C)[C@@H](O)CC[C@@H]12", "note": "[Panzem®, 2-methoxyestradiol]", "values": [{"measurement": "effect of addition on the anti-proliferative activity of rapamycin", "setting": "[1]", "value": "increases the percent of inhibition of rapamycin alone"}, {"measurement": "anti-proliferative activity", "setting": "[1]; agent alone", "value": "extremely effective inhibitor of human coronary artery smooth muscle cell proliferation"}]}, {"smiles": "Nc1nc(Cl)nc2c1ncn2[C@H]1C[C@H](O)[C@@H](CO)O1", "note": "[cladribine, 2-chlorodeoxyadenosine]", "values": [{"measurement": "potency as inhibitor of smooth muscle cells relative to endothelial cells", "setting": "[2]", "value": "approximately twice"}, {"measurement": "effect of addition on the anti-proliferative activity of rapamycin", "setting": "[3]", "value": "increases the percent inhibition of rapamycin alone"}, {"measurement": "inhibition of human coronary artery smooth muscle cell proliferation", "setting": "[3]; non-synchronized, two percent fetal bovine serum", "value": "completely inhibits"}, {"measurement": "elution from EVA/BMA basecoat compared with rapamycin", "setting": "[4]", "value": "elutes more rapidly than rapamycin"}]}, {"smiles": "COc1cc([C@@H]2c3cc4c(cc3[C@@H](O[C@@H]3O[C@@H]5CO[C@@H](C)O[C@H]5[C@H](O)[C@H]3O)[C@H]3COC(=O)[C@H]23)OCO4)cc(OC)c1O", "note": "[etoposide]", "values": [{"measurement": "effect of addition on the anti-proliferative activity of rapamycin", "setting": "[1]", "value": "increases the percent inhibition of rapamycin alone"}]}, {"smiles": "COc1c(C)c2c(c(O)c1C/C=C(\\C)CCC(=O)O)C(=O)OC2", "note": "[mycophenolic acid]", "values": [{"measurement": "elution from EVA/BMA basecoat compared with rapamycin", "setting": "[5]", "value": "elutes more completely over a shorter duration than the rapamycin"}, {"measurement": "effect of addition on the anti-proliferative activity of rapamycin", "setting": "[3]", "value": "potentiates the anti-proliferative activity of rapamycin"}]}, {"smiles": "CC[C@@]1(O)C(=O)OCc2c1cc1n(c2=O)Cc2cc3c(CN(C)C)c(O)ccc3nc2-1", "note": "[topotecan]", "values": [{"measurement": "effect of addition on the anti-proliferative activity of rapamycin", "setting": "[1]", "value": "increases the percent inhibition of rapamycin alone"}]}, {"smiles": "CC(/C=C/C(=O)NO)=C\\[C@@H](C)C(=O)c1ccc(N(C)C)cc1", "note": "[trichostatin A]", "values": [{"measurement": "inhibition of human coronary artery smooth muscle cell proliferation", "setting": "[6]", "value": "completely inhibit"}, {"measurement": "IC50", "setting": "[6]; read-out: anti-proliferative IC50", "value": "~6", "unit": "nM"}, {"measurement": "anti-proliferative IC50's", "setting": "[7]", "value": "low nM range"}]}]}
